Results published in patent publication US10202403B2, “Macrocyclic benzofuran compounds for the treatment of hepatitis C” (BRISTOL-MYERS SQUIBB COMPANY, priority 2014, dated 2019).

Tested on: genotype 1b (Con-1) HCV replicon
Assay: HCV replicon luciferase assay
Assay type: cell-based, HCV genotype 1b (Con-1) in human Huh-7 cells
Conditions: Hepatitis C virus, 72 h; genotype 1b replicon, Huh-7, Renilla luciferase, 3 days incubation
Protocol: Cell Lines. The cell lines used to evaluate compounds consist of a human hepatocyte derived cell line (Huh-7) that constitutively expresses a genotype 1b (Con-1) HCV replicon or a genotype 1b (Con-1) HCV replicon with an asparagine replacing the cysteine at amino acid 316, or a genotype 2a (JFH-1) replicon, containing a Renilla luciferase reporter gene. These cells were maintained in Dulbecco's modified Eagle medium (DMEM) containing 10% FBS, 100 U/mL penicillin/streptomycin and 1.0 mg/mL G418.
HCV replicon luciferase assay.To evaluate compound efficacy, titrated compounds were transferred to sterile 384-well tissue culture treated plates, and the plates were seeded with HCV replicon cells (50 μL at a density of 2.4×10^3 cells/well) in DMEM containing 4% FBS (final DMSO concentration at 0.5%). After 3 days incubation at 37° C., cells were analyzed for Renilla Luciferase activity using the EnduRen substrate (Promega cat #E6485) according to the manufacturer's directions. Briefly, the EnduRen substrate was diluted in DMEM and then added to the plates to a final concentration of 7.5 μM. The plates were incubated for at least 1 hour at 37° C., then read on a Viewlux Imager (PerkinElmer) using a luminescence program. The 50% effective concentration (EC50) was calculated using the four-parameter logistic formula noted above.
With CNC(=O)c1c(-c2ccc(F)cc2)oc2ccc3c(c12)Cc1cccc2cccc(c12)CO3 [Compound 1004] the EC50 was over 10 µM. CNC(=O)c1c(-c2ccc(F)cc2)oc2ccc3c(c12)CCCCCCCCCO3 [Compound 1010] showed an EC50 of 1.63 µM. With CNC(=O)c1c(-c2ccc(F)cc2)oc2ccc3c(c12)CC1(CC1)COc1ccc2oc(-c4ccc(F)cc4)c(C(=O)NC)c2c1CC1(CC1)CO3 [Compound 2005] the EC50 was 0.931 µM. Compound CNC(=O)c1c(-c2ccc(F)cc2)oc2ccc3c(c12)CCOCCOCCO3 [Compound 1006] has an EC50 of over 10 µM. CNC(=O)c1c(-c2ccc(F)cc2)oc2ccc3c(c12)Cc1cccc(n1)COc1ccc2oc(-c4ccc(F)cc4)c(C(=O)NC)c2c1Cc1cccc(n1)CO3 [Compound 2001] showed an EC50 of 6.67 µM. CNC(=O)c1c(-c2ccc(F)cc2)oc2ccc3c(c12)CCc1cccc(c1)CCO3 [Compound 1005] gave an EC50 of over 10 µM. Work on CNC(=O)c1c(-c2ccc(F)cc2)oc2ccc3c(c12)CCCCCCCO3 [Compound 1008] yielded an EC50 of 1.82 µM. Compound CNC(=O)c1c(-c2ccc(F)cc2)oc2ccc3c(c12)Cc1cccc(c1)COc1ccc2oc(-c4ccc(F)cc4)c(C(=O)NC)c2c1Cc1cccc(c1)CO3 [Compound 2004] has an EC50 of over 10 µM. Work on CNC(=O)c1c(-c2ccc(F)cc2)oc2ccc3c(c12)CCCCCCCCCCCO3 [Compound 1012] yielded an EC50 of 0.53 µM. With CNC(=O)c1c(-c2ccc(F)cc2)oc2ccc3c(c12)CCCCCCCCCCCCO3 [Compound 1013] the EC50 was 1.51 µM. Compound C=C1COc2ccc3oc(-c4ccc(F)cc4)c(C(=O)NC)c3c2CC(=C)COc2ccc3oc(-c4ccc(F)cc4)c(C(=O)NC)c3c2C1 [Compound 2002] has an EC50 of 3.65 µM. Work on C=CC1Cc2c(ccc3oc(-c4ccc(F)cc4)c(C(=O)NC)c23)O1 (centres unmarked) [Compound 1002] yielded an EC50 of 0.672 µM. Compound CNC(=O)c1c(-c2ccc(F)cc2)oc2ccc3c(c12)CCCCCCCCO3 [Compound 1009] has an EC50 of 2.08 µM. Work on CNC(=O)c1c(-c2ccc(F)cc2)oc2ccc3c(c12)CCCCCCO3 [Compound 1007] yielded an EC50 of 1.29 µM. CNC(=O)c1c(-c2ccc(F)cc2)oc2ccc3c(c12)CCCCCCCCCCO3 [Compound 1011] showed an EC50 of 1.08 µM. CNC(=O)c1c(-c2ccc(F)cc2)oc2ccc3c(c12)Cc1ccccc1-c1ccccc1CO3 [Compound 1003] gave an EC50 of 2.84 µM. With CNC(=O)c1c(-c2ccc(F)cc2)oc2ccc3c(c12)CC=CCO3 [Compound 1001] the EC50 was 2.08 µM. In the case of CNC(=O)c1c(-c2ccc(F)cc2)oc2ccc3c(c12)CCN(S(=O)(=O)c1ccc(C)cc1)CCO3 [Compound 1014], the EC50 is reported as over 10 µM.

Tested on: HCV
Assay: not given
Conditions: extended dosing of the combination regimens; development suspended; cited from earlier work
For CNC(=O)c1c(-c2ccc(F)cc2)oc2cc(N(CCO)S(C)(=O)=O)c(C3CC3)cc12 [HCV-796], the hepatic toxicity is given as “hepatic toxicity observed”.

Same assay, conditions: patients; single agent: transient decrease then rebound; more robust drop with interferon and ribavirin; cited from earlier work
For CNC(=O)c1c(-c2ccc(F)cc2)oc2cc(N(CCO)S(C)(=O)=O)c(C3CC3)cc12 [HCV-796], the “HCV RNA levels in patients” value is given as “reduce HCV RNA levels in patients”.
